Results: PubChem BioAssay (NCI)
“And” between values parts separate entries of the source, which are not always exact repeats. Identical values can stand only once.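 Interpolation was linear, between the two tested concentrations surrounding the appropriate level; five concentrations were tested over 48 hours in 96-well plates. GI50: concentration for 50% inhibition of growth. At the TGI there is no net growth.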

Columns and labels:
Assay in all cases: NCI tumour cell line growth inhibition, 48 h
[1] = tested on: HCT-116 colon
[2] = tested on: IGROV1 ovarian
[3] = tested on: M14 melanoma
[4] = tested on: NCI-H522 lung
[5] = tested on: RPMI-8226 leukemia
[6] = tested on: SF-268 CNS
[7] = tested on: SF-295 CNS
[8] = tested on: SW-620 colon
[9] = tested on: TK-10 renal
[10] = tested on: UACC-257 melanoma

Structure (SMILES) | GI50 [1] | TGI [1] [µM] | GI50 [2] | TGI [2] [µM] | GI50 [3] | TGI [3] | GI50 [4] [µM] | TGI [4] [µM] | GI50 [5] | TGI [5] [µM] | GI50 [6] | TGI [6] [µM] | GI50 [7] | TGI [7] [µM] | GI50 [8] | TGI [8] [µM] | GI50 [9] | TGI [9] [µM] | GI50 [10] | TGI [10] [µM]
CCOC(=O)/C=C/c1ccc(C(=O)OCC)[nH]1 | 4.56 µM | > 100 | 4.84 µM | > 100 | 2.82 µM | > 100 µM | 2.69 | 8.89 | 5.32 µM | > 100 | 6.65 µM | > 100 | 3.5 µM | 41.2 | 1.29 µM | > 100 | 6.05 µM | > 100 | 11.3 µM | > 100
Cc1cc2occ(C)c(=O)c2c2c1OC(C)(C)S2 |  | > 100 |  | > 100 |  | > 100 µM |  | > 100 |  | > 100 |  | > 100 |  | > 100 |  | > 100 |  | > 100 |  | > 100
O=S(=O)(O)c1ccc2cc(N=Nc3cc(S(=O)(=O)O)c4cccnc4c3O)ccc2c1 |  | > 100 |  | > 100 |  | > 100 µM |  | > 100 |  | > 100 |  | > 100 |  | > 100 |  | > 100 |  | > 100 |  | > 100
c1ccc(COc2ccc3[nH]c4c(ncc5[nH]c6ccccc6c54)c3c2)cc1 |  | 27 |  | 18.9 |  | 26.7 µM |  | 31.9 |  | 8.01 |  | 34.6 |  | 28.2 |  | 32.3 |  | 40.8 |  | 32.8
c1cc(-c2sc(-c3ccncc3)c(-c3ccncc3)c2-c2ccncc2)ccn1 |  | 28.5 |  | > 100 |  | 31.2 µM |  | 35.9 |  | > 100 |  | 37.7 |  | 41.6 |  | 59.5 |  | 32.9 |  | 31.8
CCc1cccc(C)c1NC(=O)CC1Sc2ccccc2NC1=O (stereo not drawn) |  | > 100 |  | > 100 |  | > 100 µM |  | 61.5 |  | > 100 |  | > 100 |  | > 100 |  | > 100 |  | > 100 |  | 57.7
CCOC(=O)/C=C(/CN1C(=O)c2ccccc2C1=O)c1ccccc1 |  | > 100 |  | > 100 |  | > 100 µM |  | > 100 |  | > 100 |  | > 100 |  | > 100 |  | > 100 |  | > 100 |  | > 100
Cn1cnc([N+](=O)[O-])c1Sc1ncnc2nc[nH]c12 | 3.62 µM and 23.4 µM | > 100 | 9.13 µM and 12.1 µM | > 100 | 0.755 µM and 2.77 µM | 60.5 µM and > 100 µM | 7.56 | > 100 | 3.18 µM and 1.55 µM | > 100 | 5.32 µM and 6.48 µM | > 100 | 1.61 µM and 9.82 µM | > 100 | 18.8 µM and 32.1 µM | > 100 | 3.58 µM and 3.93 µM | > 100 | 7.86 µM and 8.71 µM | > 100
CCOC(=O)/C(C1=CC(=O)C(=O)c2ccccc21)=C(/C)NCc1ccccc1 | 1.52 µM | 2.85 | 1.05 µM |  | 1.71 µM | 3.17 µM | 1.22 |  | 0.184 µM | 0.432 | 1.64 µM | 3.43 | 1.76 µM | 3.68 | 1.64 µM | 3.3 | 1.72 µM | 3.51 | 2.56 µM | 10.9
